{"source": "paper PMC8473290", "about": "(Viruses, 2021)", "key": {"[1]": {"system": "HCMV strain Merlin-pAL1502", "assay": "Cell-associated focal spread of Merlin-pAL1502 in HFFs", "assay_type": "cell-based, Human cytomegalovirus"}, "[2]": {"system": "recent cell-associated clinical HCMV isolates", "assay": "Cell-associated focal spread of recent clinical HCMV isolates in HFF co-culture", "assay_type": "cell-based, Human cytomegalovirus", "settings": "60 µmol/L, added 1 d p.i., fixed 7 d p.i."}, "TB40-BAC4": {"system": "TB40-BAC4", "assay": "Inhibition of cell-free HCMV infection of HFFs (TB40-BAC4)", "assay_type": "cell-based, Human cytomegalovirus"}, "HSV-1 R10.2": {"system": "HSV-1 R10.2", "assay": "Inhibition of cell-free HSV-1 infection of HFFs", "assay_type": "cell-based, herpes simplex virus 1", "settings": "1 h preincubation, MOI 1, fixed 6 h p.i."}, "HSV-2 R6": {"system": "HSV-2 R6", "assay": "Inhibition of cell-free HSV-2 infection of HFFs", "assay_type": "cell-based, herpes simplex virus 2", "settings": "1 h preincubation, MOI 1, fixed 6 h p.i."}, "[3]": {"system": "Merlin-pAL1502-UL32EGFP-UL100mCherry", "assay": "Single particle analysis of virion transfer with dual fluorescent Merlin", "assay_type": "cell-based, Human cytomegalovirus", "settings": "125 µmol/L, added 1 d p.i."}, "[4]": {"system": "HCMV strain Merlin-pAL1502", "assay": "Reversibility of inhibition of cell-associated spread after peptide removal", "assay_type": "cell-based, Human cytomegalovirus"}}, "note": "Peptide text beside a SMILES is read from it."}
{"compound": "CC[C@H](C)[C@H](NC(=O)[C@H](Cc1ccc(O)cc1)NC(=O)[C@@H](NC(=O)[C@H](Cc1c[nH]cn1)NC(=O)[C@H](CCCNC(=N)N)NC(=O)CN)[C@@H](C)CC)C(=O)N[C@@H](Cc1ccc(O)cc1)C(=O)N[C@H](C(=O)N1CCC[C@H]1C(=O)N[C@@H](CC(=O)O)C(=O)N1CCC[C@H]1C(=O)N[C@@H](CC(=O)O)C(=O)N[C@H](C(=O)N[C@@H](C)C(=O)N[C@@H](Cc1ccccc1)C(=O)N[C@H](C(=O)N1CCC[C@H]1C(=O)N[C@@H](CC(C)C)C(=O)NCC(=O)N[C@@H](CCSC)C(=O)N[C@H](C(=O)N[C@@H](CC(=O)O)C(=O)N[C@@H](Cc1ccc(O)cc1)C(=O)N[C@@H](CC(C)C)C(=O)N[C@H](C(=O)N[C@H](C(=O)N[C@H](C(=O)N[C@@H](CCC(=O)O)C(=O)N[C@@H](CC(=O)O)C(=O)N[C@@H](CC(=O)O)C(=O)O)C(C)C)[C@@H](C)CC)C(C)C)[C@@H](C)O)C(C)C)C(C)C)C(C)C", "note": "[GD30] (H-GRHIYIYVPDPDVAFVPLGMTDYLVIVEDD-OH; N-terminus and C-terminus assumed)", "values": [{"measurement": "Reduction of focal growth compared with GT40", "setting": "[1]; 60 µmol/L, added 1 d p.i., fixed 7 d p.i.", "result": "to a similar extent but not more than GT40"}, {"measurement": "Inhibition of cell-associated spread", "setting": "[1]; 125 µmol/L, applied 42 h p.i., MOI 0.005", "result": "almost completely inhibits"}, {"measurement": "Reduction of focal growth compared with GT40", "setting": "[2]", "result": "to a similar extent but not more than GT40"}, {"measurement": "Antiviral effect against cell-free virus", "setting": "TB40-BAC4; 2 h preincubation with virus, MOI 1, fixed next day", "result": "effective against cell-free virus"}, {"measurement": "Hill slope of the dose-response curve", "setting": "TB40-BAC4; cell-free virus, 2 h preincubation, MOI 1", "result": "−1.67"}, {"measurement": "Extent of inhibition of cell-free virus", "setting": "HSV-1 R10.2", "result": "completely"}, {"measurement": "Extent of inhibition of cell-free virus", "setting": "HSV-2 R6", "result": "completely"}, {"measurement": "Reduction of the total number of particles transferred", "setting": "[3]; MOI 0.05, versus DMSO control, 10 frames", "result": 78, "unit": "%"}, {"measurement": "Percentage of naked capsids", "setting": "[3]; MOI 0.05, untreated control 86%", "result": 7, "unit": "%"}, {"measurement": "Focus size under permanent treatment", "setting": "[4]; 125 µmol/L from 42 h p.i. until fixation at day 8", "result": "almost exclusively single infected cells"}, {"measurement": "Reversibility of the inhibitory effect after peptide removal", "setting": "[4]; 125 µmol/L from 42 h to 5 d p.i., then 3 d without peptide", "result": "completely reversible"}, {"measurement": "Mean focus size after intermittent treatment", "setting": "[4]; 125 µmol/L from 42 h to 5 d p.i., withdrawn, fixed 8 d p.i., untreated control up to 50", "result": "around 15 infected cells per focus"}]}
